# Reference: patent publication US20070282007A1, “TREATMENT OF PAIN DISORDERS WITH trans 4-(3,4-DICHLOROPHENYL)-1,2,3,4-TETRAHYDRO-1-NAPHTHALENAMINE AND ITS FORMAMIDE” (SEPRACOR INC., priority 2006, published 2007)
# pIC50, pKi: −log10 of the molar value.
# How the values were obtained:
# M2 = M2 (Homo sapiens, UniProt P08172); experiment: In vitro radioligand binding assay, M2
# [1] = molecular target: T1, Norepinephrine (NE) uptake (Rattus norvegicus, UniProt Q63380); experiment: Functional uptake of radiolabeled NE into synaptosomes from rat hypothalamus; type: biochemical
# T1 construct: from tissue; host or cells: synaptosomes from rat hypothalamus
# Description: The 5-HT and NE assays were performed essentially as outlined in Perovic S. & Müller W. E. G., Arzneim.-Forsch.
# B2 = B2 (Homo sapiens, UniProt P30411); experiment: In vitro radioligand binding assay, B2
# 5-HT2C = 5-HT2C (Homo sapiens, UniProt P28335); experiment: In vitro radioligand binding assay, 5-HT2C
# Long-Evans derived rats = experiment: Spontaneous locomotor activity study; type: in vivo, rat; conditions: mean ± SEM
# Description: The effects on locomotor activity were studied in Long-Evans derived rats following protocol outlined in Dews P., Br. J. Pharmacol., 8: 46 (1953).
# This effect was still evident 2 hours following drug administration. On the basis of these studies, CNS effects and long duration of action may be anticipated at sufficient clinical doses.
# Rat SNL Model = experiment: SNL model of neuropathic pain, mechanical hyperalgesia testing; type: in vivo
# Description: The animals were anesthetized with isoflurane, the left L5 transverse process was removed, and the L5 and L6 spinal nerves were tightly ligated with 6-0 silk suture. The wound was then closed with internal sutures and external staples. Wound clips were removed 10-11 days following surgery.
# Mechanical hyperalgesia testing: Baseline, post-injury and post-treatment values for […] mechanical sensitivity were evaluated using a Paw Pressure Analgesymeter (7200, Ugo Basile, Comerio, Italy) which generates a linearly increasing mechanical force. The mechanical nociceptive stimulus was applied to the plantar surface of the hind paws by a dome-shaped plastic tip placed between the 3rd and 4th metatarsus. […] Mechanical thresholds were defined as the force in grams at the first pain behavior, which includes paw withdrawal, struggle and/or vocalization. Paw pressure test was performed on each hind paw for each animal. The mean and standard error of the mean (SEM) were determined for each paw, in each treatment group. Mechanical hyperalgesia was evaluated 24 days post-surgery.
# Ten rats were studied per group and the tests were performed blind. (1R,4S)-4-(3,4-dichlorophenyl)-1,2,3,4-tetrahydro-1-naphthalenamine (P) was evaluated at 3 doses (5, 10 and 15 mg/kg), administered orally and compared with a vehicle control group. Gabapentin (100 mg/kg) and duloxetine (30 mg/kg) administered orally under the same experimental conditions, were used as comparator substances. Mechanical allodynia and hyperalgesia testing were conducted at baseline and 1, 2 and 4 hours after test article administration.
# H2 = H2 (Homo sapiens, UniProt P25021); experiment: In vitro radioligand binding assay, H2; conditions: read-out: Ki, H2
# hERG channel = hERG channel (Homo sapiens, UniProt Q12809); experiment: hERG channel current in stably transfected HEK293 cells
# Description: Studies were conducted to determine effects on IKr, the rapidly activating delayed rectifier cardiac potassium current in the human heart. […] In this assay system, HERG channel current serves as a surrogate for IKr.
# 5-HT1A = molecular target: T2, 5-HT1A (Homo sapiens, UniProt P08908); experiment: In vitro radioligand binding assay, 5-HT1A
# T2 sequence (P08908 1-422): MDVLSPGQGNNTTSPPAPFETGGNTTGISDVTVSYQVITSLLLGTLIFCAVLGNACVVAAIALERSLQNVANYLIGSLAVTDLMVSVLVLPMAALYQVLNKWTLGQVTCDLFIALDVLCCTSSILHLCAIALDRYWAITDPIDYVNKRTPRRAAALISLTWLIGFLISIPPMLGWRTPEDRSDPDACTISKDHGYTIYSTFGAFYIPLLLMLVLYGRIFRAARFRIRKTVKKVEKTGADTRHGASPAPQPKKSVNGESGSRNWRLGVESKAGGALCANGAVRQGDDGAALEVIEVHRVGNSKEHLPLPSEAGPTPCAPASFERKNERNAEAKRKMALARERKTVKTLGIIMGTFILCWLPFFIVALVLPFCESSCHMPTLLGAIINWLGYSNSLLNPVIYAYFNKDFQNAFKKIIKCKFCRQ
# Beagle dogs = experiment: Cardiovascular safety study in conscious telemetered dogs; type: in vivo; conditions: single oral doses 0.5, 1.5 and 5 mg/kg
# Description: There were four animals/compound and each animal within the treatment group was exposed to the three doses (plus a empty capsule control), in a dose ramp-up manner with a minimum of 72 hours between doses.
# Dopamine (DA) uptake = Dopamine (DA) uptake (Rattus norvegicus, UniProt P23977); experiment: biochemical
# rats = experiment: Formalin paw test in the rat (late phase), flinches counted; type: in vivo
# Description: Rats were given an intraplantar injection of 5% formalin (50 μl) into the posterior left paw. […] The number of flinches was counted for 15 minutes, beginning 20 minutes after injection of formalin. Eight rats were studied per group. The test was performed blind. […] Data were analyzed by comparing treated groups with vehicle control using unpaired Mann-Whitney U tests.
# [2] = molecular target: T3, recombinant human Dopamine (DA) transporter (Homo sapiens, UniProt Q01959); experiment: Functional uptake of DA into cells expressing recombinant human transporters; type: cell-based; conditions: read-out: IC50 inhibition of functional uptake in human transporters, Dopamine (DA)
# T3 construct: expressed in transfected cells
# NE transporter = molecular target: T4, NE transporter (Homo sapiens, UniProt P23975); experiment: Radioligand binding assay, NE transporter ([3H]nisoxetine displacement); conditions: human recombinant; [3H]nisoxetine 0.3 nM; read-out: Ki, Norepinephrine (NE) transporter
# T4 construct: expressed in transfected cells
# Description: The assays measured the affinity of the two compounds for transporters of the monoamines 5-HT, NE and DA. […] The transporters were human recombinant proteins expressed in mammalian cells. Binding to the 5-HT transporter was assessed by evaluating displacement of [^3H]paroxetine (0.1 nM). […] Binding to the NE transporter was assessed by evaluating displacement of [^3H]nisoxetine (0.3 nM).
# [3] = 5 mg/kg p.o. 60 min before the test
# [4] = 10 mg/kg p.o. 60 min before the test
# [5] = 15 mg/kg p.o. 60 min before the test
# T3 sequence (Q01959 whole entry): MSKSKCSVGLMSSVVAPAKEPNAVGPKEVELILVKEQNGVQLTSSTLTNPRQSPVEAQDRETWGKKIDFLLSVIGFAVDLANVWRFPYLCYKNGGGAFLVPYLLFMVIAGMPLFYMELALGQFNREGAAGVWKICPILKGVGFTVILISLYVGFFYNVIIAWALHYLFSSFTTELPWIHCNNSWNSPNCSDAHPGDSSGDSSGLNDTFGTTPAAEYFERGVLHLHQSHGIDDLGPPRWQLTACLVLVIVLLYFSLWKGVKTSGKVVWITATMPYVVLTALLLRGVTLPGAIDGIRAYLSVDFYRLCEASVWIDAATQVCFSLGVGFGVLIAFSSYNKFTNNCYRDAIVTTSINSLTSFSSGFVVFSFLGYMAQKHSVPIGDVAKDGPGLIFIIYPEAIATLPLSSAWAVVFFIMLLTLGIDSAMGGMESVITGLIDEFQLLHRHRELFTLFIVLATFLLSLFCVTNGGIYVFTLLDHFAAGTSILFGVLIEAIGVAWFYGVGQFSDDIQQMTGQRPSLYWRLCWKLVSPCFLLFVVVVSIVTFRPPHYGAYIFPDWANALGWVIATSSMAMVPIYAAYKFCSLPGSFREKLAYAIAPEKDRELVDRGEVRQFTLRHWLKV
# B2, sequence (P30411 whole entry): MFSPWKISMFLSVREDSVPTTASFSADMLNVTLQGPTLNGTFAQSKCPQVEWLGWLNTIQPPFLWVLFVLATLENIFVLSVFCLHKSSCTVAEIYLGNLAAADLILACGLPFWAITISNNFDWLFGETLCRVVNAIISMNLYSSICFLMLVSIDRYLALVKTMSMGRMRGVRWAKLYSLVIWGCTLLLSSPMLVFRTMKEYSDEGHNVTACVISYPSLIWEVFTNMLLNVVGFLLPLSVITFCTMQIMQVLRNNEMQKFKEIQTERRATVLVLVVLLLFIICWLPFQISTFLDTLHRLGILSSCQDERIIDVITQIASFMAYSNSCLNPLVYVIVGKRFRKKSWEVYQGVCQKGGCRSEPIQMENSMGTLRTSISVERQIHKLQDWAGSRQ
# T4 sequence (P23975 whole entry): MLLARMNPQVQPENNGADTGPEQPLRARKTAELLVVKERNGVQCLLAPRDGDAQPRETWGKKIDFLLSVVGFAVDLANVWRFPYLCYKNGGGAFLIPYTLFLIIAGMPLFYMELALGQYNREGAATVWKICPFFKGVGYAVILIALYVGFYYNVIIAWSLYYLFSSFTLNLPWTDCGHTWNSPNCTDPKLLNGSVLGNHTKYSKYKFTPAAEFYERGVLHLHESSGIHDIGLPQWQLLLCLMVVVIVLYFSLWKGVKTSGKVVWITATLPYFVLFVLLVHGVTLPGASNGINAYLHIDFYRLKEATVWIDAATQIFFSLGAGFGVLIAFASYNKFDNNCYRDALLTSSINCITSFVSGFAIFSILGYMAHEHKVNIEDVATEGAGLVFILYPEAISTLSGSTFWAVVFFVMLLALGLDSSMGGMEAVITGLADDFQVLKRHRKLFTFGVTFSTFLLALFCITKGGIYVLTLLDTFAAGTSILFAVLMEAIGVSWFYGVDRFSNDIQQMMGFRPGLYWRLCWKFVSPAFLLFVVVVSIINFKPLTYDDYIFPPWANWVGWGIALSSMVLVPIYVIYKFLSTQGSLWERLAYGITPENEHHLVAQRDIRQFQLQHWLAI
# 5-HT2C, sequence (P28335 33-458, species assumed): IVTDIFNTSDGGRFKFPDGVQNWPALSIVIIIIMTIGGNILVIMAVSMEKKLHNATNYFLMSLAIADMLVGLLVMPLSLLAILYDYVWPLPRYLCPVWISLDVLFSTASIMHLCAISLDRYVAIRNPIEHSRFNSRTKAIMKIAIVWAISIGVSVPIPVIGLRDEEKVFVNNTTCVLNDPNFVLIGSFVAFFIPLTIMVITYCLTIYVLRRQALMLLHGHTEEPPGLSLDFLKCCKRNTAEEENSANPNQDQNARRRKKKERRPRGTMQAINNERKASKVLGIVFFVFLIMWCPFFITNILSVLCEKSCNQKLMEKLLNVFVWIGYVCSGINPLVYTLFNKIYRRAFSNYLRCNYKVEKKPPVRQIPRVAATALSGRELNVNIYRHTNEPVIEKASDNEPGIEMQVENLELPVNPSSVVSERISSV
# H2, sequence (P25021 whole entry): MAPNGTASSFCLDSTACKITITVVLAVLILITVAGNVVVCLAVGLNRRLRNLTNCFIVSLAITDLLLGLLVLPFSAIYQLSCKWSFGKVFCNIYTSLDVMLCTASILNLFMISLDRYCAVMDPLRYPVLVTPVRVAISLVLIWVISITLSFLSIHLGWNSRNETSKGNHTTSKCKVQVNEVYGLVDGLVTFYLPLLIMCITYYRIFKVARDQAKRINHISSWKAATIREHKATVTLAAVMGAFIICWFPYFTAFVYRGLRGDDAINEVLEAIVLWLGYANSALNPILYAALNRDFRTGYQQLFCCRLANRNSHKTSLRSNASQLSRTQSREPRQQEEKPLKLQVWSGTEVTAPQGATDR
# hERG channel, sequence (Q12809 whole entry): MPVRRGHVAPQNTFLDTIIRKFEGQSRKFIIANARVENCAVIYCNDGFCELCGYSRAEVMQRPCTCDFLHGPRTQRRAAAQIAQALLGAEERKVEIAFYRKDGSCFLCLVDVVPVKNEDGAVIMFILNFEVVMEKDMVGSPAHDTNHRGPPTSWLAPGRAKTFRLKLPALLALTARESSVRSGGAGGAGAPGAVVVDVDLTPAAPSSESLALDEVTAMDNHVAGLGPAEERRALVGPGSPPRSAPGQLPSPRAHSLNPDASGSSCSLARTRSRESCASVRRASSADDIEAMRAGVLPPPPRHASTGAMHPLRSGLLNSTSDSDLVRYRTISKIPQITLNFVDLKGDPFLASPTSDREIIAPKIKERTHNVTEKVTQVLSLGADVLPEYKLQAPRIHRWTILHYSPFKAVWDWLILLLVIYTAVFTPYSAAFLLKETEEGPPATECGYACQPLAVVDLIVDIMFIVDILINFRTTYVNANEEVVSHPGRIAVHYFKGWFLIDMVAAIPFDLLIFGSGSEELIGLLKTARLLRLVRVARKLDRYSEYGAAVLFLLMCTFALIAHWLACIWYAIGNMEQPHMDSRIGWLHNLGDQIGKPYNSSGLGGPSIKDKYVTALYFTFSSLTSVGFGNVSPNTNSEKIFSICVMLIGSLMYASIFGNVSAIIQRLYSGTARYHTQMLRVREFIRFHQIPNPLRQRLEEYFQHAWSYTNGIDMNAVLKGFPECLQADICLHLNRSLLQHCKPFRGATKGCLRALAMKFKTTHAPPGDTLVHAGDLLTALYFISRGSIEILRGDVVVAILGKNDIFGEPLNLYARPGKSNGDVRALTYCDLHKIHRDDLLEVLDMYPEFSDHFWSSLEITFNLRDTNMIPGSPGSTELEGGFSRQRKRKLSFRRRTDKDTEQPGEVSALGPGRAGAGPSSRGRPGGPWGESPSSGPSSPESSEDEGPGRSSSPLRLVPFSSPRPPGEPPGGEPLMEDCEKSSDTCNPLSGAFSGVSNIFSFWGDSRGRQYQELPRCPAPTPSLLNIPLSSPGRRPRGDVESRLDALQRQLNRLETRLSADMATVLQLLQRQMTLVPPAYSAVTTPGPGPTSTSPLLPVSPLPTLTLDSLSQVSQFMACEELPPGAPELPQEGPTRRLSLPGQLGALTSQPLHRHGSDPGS
# M2, sequence (P08172 whole entry): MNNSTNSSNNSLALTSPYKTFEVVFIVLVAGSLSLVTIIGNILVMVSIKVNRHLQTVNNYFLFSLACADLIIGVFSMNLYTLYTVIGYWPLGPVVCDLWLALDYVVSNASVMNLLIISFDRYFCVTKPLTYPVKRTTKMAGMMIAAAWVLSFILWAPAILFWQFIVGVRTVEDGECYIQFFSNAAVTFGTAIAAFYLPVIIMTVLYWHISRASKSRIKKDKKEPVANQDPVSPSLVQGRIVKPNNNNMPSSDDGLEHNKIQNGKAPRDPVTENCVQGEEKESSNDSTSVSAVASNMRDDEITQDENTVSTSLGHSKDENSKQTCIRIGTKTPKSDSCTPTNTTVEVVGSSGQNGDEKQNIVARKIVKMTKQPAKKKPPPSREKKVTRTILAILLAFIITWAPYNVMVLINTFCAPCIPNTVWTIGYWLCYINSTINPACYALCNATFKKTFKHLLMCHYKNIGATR
# T1 sequence (Q63380 1-617): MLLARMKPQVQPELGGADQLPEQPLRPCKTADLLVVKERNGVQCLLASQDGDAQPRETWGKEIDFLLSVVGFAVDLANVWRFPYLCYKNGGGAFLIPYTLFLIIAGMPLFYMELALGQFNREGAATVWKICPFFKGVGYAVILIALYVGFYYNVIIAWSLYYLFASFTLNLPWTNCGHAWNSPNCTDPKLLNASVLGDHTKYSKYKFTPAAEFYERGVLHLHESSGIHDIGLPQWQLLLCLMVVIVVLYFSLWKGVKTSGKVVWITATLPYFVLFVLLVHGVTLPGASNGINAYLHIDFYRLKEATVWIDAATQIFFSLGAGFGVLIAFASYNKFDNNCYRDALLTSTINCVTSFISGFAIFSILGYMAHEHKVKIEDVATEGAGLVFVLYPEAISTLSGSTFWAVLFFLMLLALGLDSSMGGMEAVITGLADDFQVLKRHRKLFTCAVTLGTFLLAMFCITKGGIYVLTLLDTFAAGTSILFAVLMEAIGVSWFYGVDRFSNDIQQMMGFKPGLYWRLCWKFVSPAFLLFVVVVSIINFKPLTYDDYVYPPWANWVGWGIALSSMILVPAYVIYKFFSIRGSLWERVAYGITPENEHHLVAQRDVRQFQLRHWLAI
smiles,measurement,setting,value
"N[C@@H]1CC[C@@H](c2ccc(Cl)c(Cl)c2)c2ccccc21 [Compound P, (1R,4S)-trans 4-(3,4-dichlorophenyl)-1,2,3,4-tetrahydro-1-napthalenamine]",pKi,M2,5.30
same,pIC50,[1],8.02
same,pKi,B2,5.82
same,pKi,5-HT2C,5.29
same,"Total Activity Counts, 71–80 Minutes",Long-Evans derived rats; 2.5 mg/kg single i.p. dose,49 ± 6
same,"Total Activity Counts, 91–100 Minutes",Long-Evans derived rats; 2.5 mg/kg single i.p. dose,54 ± 9
same,"Total Activity Counts, 111–120 Minutes",Long-Evans derived rats; 2.5 mg/kg single i.p. dose,34 ± 9
same,"Total Activity Counts, Total 1st Hour",Long-Evans derived rats; 2.5 mg/kg single i.p. dose,577 ± 54^1
same,"Total Activity Counts, Total 2nd Hour",Long-Evans derived rats; 2.5 mg/kg single i.p. dose,257 ± 36
same,"Total Activity Counts, 71–80 Minutes",Long-Evans derived rats; 5.0 mg/kg single i.p. dose,38 ± 3
same,"Total Activity Counts, 91–100 Minutes",Long-Evans derived rats; 5.0 mg/kg single i.p. dose,26 ± 26
same,"Total Activity Counts, 111–120 Minutes",Long-Evans derived rats; 5.0 mg/kg single i.p. dose,23 ± 14
same,"Total Activity Counts, Total 1st Hour",Long-Evans derived rats; 5.0 mg/kg single i.p. dose,444 ± 91
same,"Total Activity Counts, Total 2nd Hour",Long-Evans derived rats; 5.0 mg/kg single i.p. dose,160 ± 32
same,"Mechanical Hyperalgesia, Paw Pressure Threshold (Mean ± SEM)","Rat SNL Model; 5 mg/kg PO, 0 h (Baseline)",147 ± 17 g
same,"Mechanical Hyperalgesia, Paw Pressure Threshold (Mean ± SEM)","Rat SNL Model; 5 mg/kg PO, 1 h",183 ± 35 g
same,"Mechanical Hyperalgesia, Paw Pressure Threshold (Mean ± SEM)","Rat SNL Model; 5 mg/kg PO, 2 h",240 ± 32 g
same,"Mechanical Hyperalgesia, Paw Pressure Threshold (Mean ± SEM)","Rat SNL Model; 5 mg/kg PO, 4 h",257 ± 37 g
same,"Mechanical Hyperalgesia, Paw Pressure Threshold (Mean ± SEM)","Rat SNL Model; 10 mg/kg PO, 0 h (Baseline)",152 ± 18 g
same,"Mechanical Hyperalgesia, Paw Pressure Threshold (Mean ± SEM)","Rat SNL Model; 10 mg/kg PO, 1 h",213 ± 32 g
same,"Mechanical Hyperalgesia, Paw Pressure Threshold (Mean ± SEM)","Rat SNL Model; 10 mg/kg PO, 2 h",309 ± 27 g
same,"Mechanical Hyperalgesia, Paw Pressure Threshold (Mean ± SEM)","Rat SNL Model; 10 mg/kg PO, 4 h",282 ± 30 g
same,"Mechanical Hyperalgesia, Paw Pressure Threshold (Mean ± SEM)","Rat SNL Model; 15 mg/kg PO, 0 h (Baseline)",164 ± 22 g
same,"Mechanical Hyperalgesia, Paw Pressure Threshold (Mean ± SEM)","Rat SNL Model; 15 mg/kg PO, 1 h",281 ± 37 g
same,"Mechanical Hyperalgesia, Paw Pressure Threshold (Mean ± SEM)","Rat SNL Model; 15 mg/kg PO, 2 h",251 ± 37 g
same,"Mechanical Hyperalgesia, Paw Pressure Threshold (Mean ± SEM)","Rat SNL Model; 15 mg/kg PO, 4 h",269 ± 37 g
same,pKi,H2,5.40
same,pIC50,hERG channel,6.10
same,pKi,5-HT1A,5.96
same,"effect on heart rate, blood pressure or ECG parameters (including QTc)",Beagle dogs,no effect
same,pIC50,Dopamine (DA) uptake,8.19
same,"NUMBER OF FLINCHES (20 to 35 min after formalin), mean ± s.e.m.",rats; [3],89.0 ± 18.4NS
same,"NUMBER OF FLINCHES, % change from control",rats; [3],0%
same,"NUMBER OF FLINCHES (20 to 35 min after formalin), mean ± s.e.m.",rats; [4],76.4 ± 15.2NS
same,"NUMBER OF FLINCHES, % change from control",rats; [4],−15%
same,"NUMBER OF FLINCHES (20 to 35 min after formalin), mean ± s.e.m.",rats; [5],44.6 ± 13.6
same,"NUMBER OF FLINCHES, % change from control",rats; [5],−50%
same,pIC50,[2],7.89
same,pKi,NE transporter,7.70
